# Assay results reported in article PMC8761492 (Life Science Alliance, 2022).
# Starred links: 1 amine or outer side, 2 acyl side, 3 side chain; linkers in the order of their positions; H or OH if unused. Positions of bridges follow the written chain, without caps; N, C: chain ends. Non-standard residues stand in square brackets, D forms with d. Residues, ends and D or L forms follow the SMILES beside them. *: point of attachment. X1 = CC[C@H](C)[C@@H](N[*:1])[C@@H](O)CC(=O)O[C@H](C(=O)[C@H](C)C(=O)[*:2])C(C)C; NMeY = CN[C@@H](Cc1ccc(O)cc1)C(=O)O; dNMeL = CN[C@H](CC(C)C)C(=O)O; Pyruvoyl = CC(=O)C(=O)*
# Key:
# [1] = tested on: COVID-19; test: APLICOV-PC: six-point ordinal scale (post hoc); format: in vivo, human
# Protocol: Although not specified in the protocol (so not captured in the CRF), post-hoc analysis was performed to categorize the status of each patient at baseline, on Days 7, 15, 31, and at time of discharge using the following 6-point ordinal scale (Wang et al 2020):
# Hospital admission, not requiring supplemental oxygen
# Hospital admission, requiring supplemental oxygen
# Hospital admission, requiring high-flow nasal cannula or noninvasive mechanical ventilation
# Hospital admission, requiring extracorporeal membrane oxygenation or invasive mechanical ventilation
# The number and percentage of patients with at least 1-point and at least 2-point improvements from baseline was calculated for Days 7, 15, 31 and date of discharge.
# [2] = tested on: CYP3A4; design: method as in study protocol; conditions: in vitro studies; ref study protocol; cited from earlier work
# [3] = APLICOV-PC: central analysis of electrocardiograms; conditions: 317 ECGs from 44 patients; no value above
# [4] = tested on: SARS-CoV-2; test: SARS-CoV-2-induced cytopathic effect in Vero E6 cells (CellTiter-Glo); conditions: read-out: IC50 against SARS-CoV-2-induced cytopathic effects, 3 d post infection
# [5] = Protocol estimate of target concentrations from the HCoV-229E experiment; conditions: bovine, cell culture medium with 10% bovine serum
compound,measurement,setting,value
CC[C@H](C)[C@H]1NC(=O)[C@@H](NC(=O)[C@@H](CC(C)C)N(C)C(=O)[C@@H]2CCCN2C(=O)C(C)=O)[C@@H](C)OC(=O)[C@H](Cc2ccc(OC)cc2)N(C)C(=O)[C@@H]2CCCN2C(=O)[C@H](CC(C)C)NC(=O)[C@@H](C)C(=O)[C@H](C(C)C)OC(=O)C[C@@H]1O [Plitidepsin] (Pyruvoyl-P[dNMeL]T[X1]LP[NMeY](Me); ester 3-C),"2 Hospital admission, not requiring supplemental oxygen","[1]; Day 7, 1.5 mg (N=14)",21.4%
same,"3 Hospital admission, requiring supplemental oxygen","[1]; Day 7, 1.5 mg (N=14)",35.7%
same,"4 Hospital admission, requiring high-flow nasal cannula or non-invasive mechanical ventilation","[1]; Day 7, 1.5 mg (N=14)",21.4%
same,1 Discharged (Alive),"[1]; Day 7, 2 mg (N=15)",13.3%
same,"2 Hospital admission, not requiring supplemental oxygen","[1]; Day 7, 2 mg (N=15)",20%
same,"3 Hospital admission, requiring supplemental oxygen","[1]; Day 7, 2 mg (N=15)",66.7%
same,1 Discharged (Alive),"[1]; Day 7, 2.5 mg (N=15)",33.3%
same,"2 Hospital admission, not requiring supplemental oxygen","[1]; Day 7, 2.5 mg (N=15)",20%
same,"3 Hospital admission, requiring supplemental oxygen","[1]; Day 7, 2.5 mg (N=15)",26.7%
same,"4 Hospital admission, requiring high-flow nasal cannula or non-invasive mechanical ventilation","[1]; Day 7, 2.5 mg (N=15)",20%
same,1 Discharged (Alive),"[1]; Day 7, Total (N=44)",22.7%
same,"2 Hospital admission, not requiring supplemental oxygen","[1]; Day 7, Total (N=44)",20.5%
same,"3 Hospital admission, requiring supplemental oxygen","[1]; Day 7, Total (N=44)",43.2%
same,"4 Hospital admission, requiring high-flow nasal cannula or non-invasive mechanical ventilation","[1]; Day 7, Total (N=44)",13.6%
same,1 Discharged (Alive),"[1]; Day 15, 1.5 mg (N=14)",78.6%
same,"3 Hospital admission, requiring supplemental oxygen","[1]; Day 15, 1.5 mg (N=14)",7.1%
same,"4 Hospital admission, requiring high-flow nasal cannula or non-invasive mechanical ventilation","[1]; Day 15, 1.5 mg (N=14)",7.1%
same,"5 Hospital admission, requiring extracorporeal membrane oxygenation or invasive mechanical ventilation","[1]; Day 15, 1.5 mg (N=14)",7.1%
same,1 Discharged (Alive),"[1]; Day 15, 2 mg (N=15)",93.3%
same,"5 Hospital admission, requiring extracorporeal membrane oxygenation or invasive mechanical ventilation","[1]; Day 15, 2 mg (N=15)",6.7%
same,1 Discharged (Alive),"[1]; Day 15, 2.5 mg (N=15)",73.3%
same,"3 Hospital admission, requiring supplemental oxygen","[1]; Day 15, 2.5 mg (N=15)",6.7%
same,"4 Hospital admission, requiring high-flow nasal cannula or non-invasive mechanical ventilation","[1]; Day 15, 2.5 mg (N=15)",20%
same,1 Discharged (Alive),"[1]; Day 15, Total (N=44)",81.8%
same,"3 Hospital admission, requiring supplemental oxygen","[1]; Day 15, Total (N=44)",4.5%
same,"4 Hospital admission, requiring high-flow nasal cannula or non-invasive mechanical ventilation","[1]; Day 15, Total (N=44)",9.1%
same,"5 Hospital admission, requiring extracorporeal membrane oxygenation or invasive mechanical ventilation","[1]; Day 15, Total (N=44)",4.5%
same,1 Discharged (Alive),"[1]; Day 31, 1.5 mg (N=14)",85.7%
same,"2 Hospital admission, not requiring supplemental oxygen","[1]; Day 31, 1.5 mg (N=14)",7.1%
same,6 Death,"[1]; Day 31, 1.5 mg (N=14)",7.1%
same,1 Discharged (Alive),"[1]; Day 31, 2 mg (N=15)",93.3%
same,"4 Hospital admission, requiring high-flow nasal cannula or non-invasive mechanical ventilation","[1]; Day 31, 2 mg (N=15)",6.7%
same,1 Discharged (Alive),"[1]; Day 31, 2.5 mg (N=15)",80%
same,"2 Hospital admission, not requiring supplemental oxygen","[1]; Day 31, 2.5 mg (N=15)",6.7%
same,"5 Hospital admission, requiring extracorporeal membrane oxygenation or invasive mechanical ventilation","[1]; Day 31, 2.5 mg (N=15)",6.7%
same,6 Death,"[1]; Day 31, 2.5 mg (N=15)",6.7%
same,1 Discharged (Alive),"[1]; Day 31, Total (N=44)",86.4%
same,"2 Hospital admission, not requiring supplemental oxygen","[1]; Day 31, Total (N=44)",4.5%
same,"4 Hospital admission, requiring high-flow nasal cannula or non-invasive mechanical ventilation","[1]; Day 31, Total (N=44)",2.3%
same,"5 Hospital admission, requiring extracorporeal membrane oxygenation or invasive mechanical ventilation","[1]; Day 31, Total (N=44)",2.3%
same,6 Death,"[1]; Day 31, Total (N=44)",4.5%
same,major enzyme involved in plitidepsin metabolism,[2],CYP3A4
same,QTcF,[3],≤ 480 ms
same,δ QTcF,[3],≤ 60 ms
same,IC50,[4],0.038 µM
same,fraction unbound,[5],> 0.96
